In the NIST ThermoML archive (doi:10.1016/j.tca.2018.01.023):
Where “and” joins values, the source holds several entries; their conditions need not be identical. Equal entries are not always repeated.

Experiment: molar heat capacity at constant pressure
Settings: 101.33 kPa, Crystal, Small sample (50 mg) DSC

[Ca+2].[O]=[Mo](=[O])([O-])[O-] [calcium molybdate(VI)]
Settings | molar heat capacity at constant pressure
495.4 K | 135.5 J/K/mol
495.8 K | 135.8 J/K/mol
496.4 K | 135.6 J/K/mol
496.8 K | 135.8 J/K/mol
497.4 K | 135.6 J/K/mol
497.8 K | 135.9 J/K/mol
498.4 K | 135.7 J/K/mol
498.8 K | 136 J/K/mol
499.4 K | 135.8 J/K/mol
499.8 K | 136 J/K/mol
500 K | 136 J/K/mol
500.4 K | 135.9 J/K/mol
500.8 K | 136.1 J/K/mol
501.4 K | 136 J/K/mol
501.8 K | 136.1 J/K/mol
502.4 K | 136.1 J/K/mol
502.8 K | 136.1 J/K/mol
503.4 K | 136.2 J/K/mol
503.8 K | 136.2 J/K/mol
504.4 K | 136.2 J/K/mol
504.8 K | 136.2 J/K/mol
505.4 K | 136.3 J/K/mol
505.8 K | 136.3 J/K/mol
506.4 K | 136.3 J/K/mol
506.8 K | 136.4 J/K/mol
507.4 K | 136.4 J/K/mol
507.8 K | 136.5 J/K/mol
508.4 K | 136.5 J/K/mol
508.8 K | 136.5 J/K/mol
509.4 K | 136.6 J/K/mol
509.8 K | 136.5 J/K/mol
510 K | 136.6 J/K/mol
510.4 K | 136.6 J/K/mol
510.8 K | 136.6 J/K/mol
511.4 K | 136.7 J/K/mol
511.8 K | 136.7 J/K/mol
512.4 K | 136.8 J/K/mol
512.8 K | 136.8 J/K/mol
513.4 K | 136.9 J/K/mol
513.8 K | 136.9 J/K/mol
514.4 K | 137 J/K/mol
514.8 K | 136.9 J/K/mol
515.4 K | 137.1 J/K/mol
515.8 K | 137 J/K/mol
516.4 K | 137.1 J/K/mol
516.8 K | 137 J/K/mol
517.4 K | 137.2 J/K/mol
517.8 K | 137.1 J/K/mol
518.4 K | 137.3 J/K/mol
518.8 K | 137.2 J/K/mol
519.4 K | 137.3 J/K/mol
519.8 K | 137.3 J/K/mol
520 K | 137.3 J/K/mol
520.4 K | 137.4 J/K/mol
520.8 K | 137.3 J/K/mol
521.4 K | 137.5 J/K/mol
521.8 K | 137.4 J/K/mol
522.4 K | 137.6 J/K/mol
522.8 K | 137.5 J/K/mol
523.4 K | 137.7 J/K/mol
523.8 K | 137.6 J/K/mol
524.4 K | 137.7 J/K/mol
524.8 K | 137.6 J/K/mol
525.4 K | 137.8 J/K/mol
525.8 K | 137.7 J/K/mol
526.4 K | 137.8 J/K/mol
526.8 K | 137.7 J/K/mol
527.4 K | 137.9 J/K/mol
527.8 K | 137.7 J/K/mol
528.4 K | 137.9 J/K/mol
528.9 K | 137.8 J/K/mol
529.4 K | 138 J/K/mol
529.9 K | 137.8 J/K/mol
530 K | 137.9 J/K/mol
530.4 K | 138.1 J/K/mol
530.9 K | 137.8 J/K/mol
531.4 K | 138.1 J/K/mol
531.9 K | 137.8 J/K/mol
532.4 K | 138.2 J/K/mol
532.9 K | 137.9 J/K/mol
533.4 K | 138.2 J/K/mol
533.9 K | 138 J/K/mol
534.4 K | 138.3 J/K/mol
534.9 K | 138.1 J/K/mol
535.4 K | 138.3 J/K/mol
535.9 K | 138.2 J/K/mol
536.4 K | 138.4 J/K/mol
536.9 K | 138.3 J/K/mol
537.4 K | 138.5 J/K/mol
537.9 K | 138.4 J/K/mol
538.4 K | 138.5 J/K/mol
538.9 K | 138.5 J/K/mol
539.4 K | 138.6 J/K/mol
539.9 K | 138.7 J/K/mol
540 K | 138.4 J/K/mol
540.4 K | 138.7 J/K/mol
540.9 K | 138.8 J/K/mol
541.4 K | 138.7 J/K/mol
541.9 K | 138.8 J/K/mol
542.4 K | 138.8 J/K/mol
542.9 K | 138.8 J/K/mol
543.4 K | 138.8 J/K/mol
543.9 K | 138.9 J/K/mol
544.4 K | 138.9 J/K/mol
544.9 K | 138.9 J/K/mol
545.4 K | 138.9 J/K/mol
545.9 K | 138.9 J/K/mol
546.4 K | 139 J/K/mol
546.9 K | 138.9 J/K/mol
547.4 K | 139 J/K/mol
547.9 K | 139 J/K/mol
548.4 K | 139 J/K/mol
548.9 K | 139.1 J/K/mol
549.4 K | 139 J/K/mol
549.9 K | 139.2 J/K/mol
550 K | 139 J/K/mol
550.4 K | 139.1 J/K/mol
550.9 K | 139.3 J/K/mol
551.4 K | 139.1 J/K/mol
551.9 K | 139.5 J/K/mol
552.4 K | 139.2 J/K/mol
552.9 K | 139.6 J/K/mol
553.4 K | 139.2 J/K/mol
553.9 K | 139.7 J/K/mol
554.4 K | 139.3 J/K/mol
554.9 K | 139.8 J/K/mol
555.4 K | 139.3 J/K/mol
555.9 K | 139.8 J/K/mol
556.4 K | 139.4 J/K/mol
556.9 K | 139.8 J/K/mol
557.4 K | 139.5 J/K/mol
557.9 K | 139.8 J/K/mol
558.4 K | 139.5 J/K/mol
558.9 K | 139.8 J/K/mol
559.4 K | 139.6 J/K/mol
559.9 K | 139.9 J/K/mol
560 K | 139.5 J/K/mol
560.4 K | 139.7 J/K/mol
560.9 K | 139.9 J/K/mol
561.4 K | 139.7 J/K/mol
561.9 K | 140 J/K/mol
562.4 K | 139.8 J/K/mol
562.9 K | 140.2 J/K/mol
563.4 K | 139.8 J/K/mol
563.9 K | 140.4 J/K/mol
564.4 K | 139.9 J/K/mol
564.9 K | 140.6 J/K/mol
565.4 K | 139.9 J/K/mol
565.9 K | 140.7 J/K/mol
566.4 K | 139.9 J/K/mol
566.9 K | 140.8 J/K/mol
567.4 K | 139.9 J/K/mol
568 K | 140.8 J/K/mol
568.4 K | 140 J/K/mol
569 K | 140.9 J/K/mol
569.4 K | 140.1 J/K/mol
570 K | 140 J/K/mol and 141 J/K/mol
570.4 K | 140.2 J/K/mol
571 K | 141 J/K/mol
571.4 K | 140.2 J/K/mol
572 K | 141 J/K/mol
572.4 K | 140.3 J/K/mol
573 K | 141 J/K/mol
573.4 K | 140.3 J/K/mol
574 K | 141.1 J/K/mol
574.4 K | 140.4 J/K/mol
575 K | 141.2 J/K/mol
575.4 K | 140.4 J/K/mol
576 K | 141.2 J/K/mol
576.4 K | 140.5 J/K/mol
577 K | 141.3 J/K/mol
577.4 K | 140.6 J/K/mol
578 K | 141.3 J/K/mol
578.4 K | 140.7 J/K/mol
579 K | 141.2 J/K/mol
579.4 K | 140.7 J/K/mol
580 K | 140.5 J/K/mol and 141.2 J/K/mol
580.4 K | 140.8 J/K/mol
581 K | 141.2 J/K/mol
581.4 K | 140.8 J/K/mol
582 K | 141.3 J/K/mol
582.4 K | 140.8 J/K/mol
583 K | 141.3 J/K/mol
583.4 K | 140.9 J/K/mol
584 K | 141.4 J/K/mol
584.4 K | 140.9 J/K/mol
585 K | 141.6 J/K/mol
585.4 K | 141 J/K/mol
586 K | 141.7 J/K/mol
586.4 K | 141 J/K/mol
587 K | 141.8 J/K/mol
587.4 K | 141 J/K/mol
588 K | 141.9 J/K/mol
588.4 K | 141 J/K/mol
589 K | 142 J/K/mol
589.4 K | 141 J/K/mol
590 K | 141 J/K/mol and 142.1 J/K/mol
590.4 K | 141.1 J/K/mol
591 K | 142.1 J/K/mol
591.4 K | 141.2 J/K/mol
592 K | 142 J/K/mol
592.4 K | 141.2 J/K/mol
593 K | 142 J/K/mol
593.4 K | 141.2 J/K/mol
594 K | 142 J/K/mol
594.4 K | 141.2 J/K/mol
595 K | 142 J/K/mol
595.4 K | 141.2 J/K/mol
596 K | 142.1 J/K/mol
